Results as given in US11560384B2, “Benzonorbornadiene derivatives and reactions thereof” (University of Utah Research Foundation, priority 2017, dated 2023).
Values joined by “and” are separate entries in the source; they are usually repeats but may differ in a detail not shown here. Identical values can stand only once. “Also recorded” adds a separate entry of the source.

Key:
[1] = Second-order reaction kinetics with tetrazine DPTz (UV-Vis absorbance at 525 nm); type: physicochemical; settings: for Second-order rate constant (k2): with DPTz, 37° C., λabs = 525 nm
Method: (§1) UV-VIS photospectrometic kinetic measurements were performed on a BioTek Synergy HT Microplate Reader (BioTek, USA) in a 96-well plate formate. In further detail, for analysis of reaction kinetics in DMSO and DMSO/H2O (9:1, v/v), stock solutions of benzonorbornadiene derivatives 1-3 (60 mM or 12.5 mM) and tetrazine (15 mM or 2.5 mM) in DMSO were prepared. Final solutions containing tetrazine (2 mM or 0.25 mM) and 1-3 (20 mM, 30 mM, 40 mM and 50 mM or 2.5 mM, 3.75 mM, 5 mM, 6.25 mM) were prepared in 96-well plates and thoroughly mixed at 37° C. for UV-Vis measurements. For analysis of reaction kinetics in DMSO/PBS (3:2, v/v), final solutions containing tetrazine (0.05 mM) and 1-2 (0.5 mM), tetrazine alone (0.05 mM) were prepared in 96-well plates and thoroughly mixed at 37° C. for UV-Vis measurements. The reactions were monitored at 525 nm, which is a local absorbance maximum of tetrazine. All kinetic experiments were run in triplicates. Pseudo-first order curve fitting was performed with Origin 8.0 software using the exponential formula: y=A1×e^kx+y0.

A549 lung cancer cells = test: Cell proliferation / cytotoxicity assay (CellTiter-Glo); type: cell-based; settings: compound alone
Method: Cell proliferation assays were performed on an Envision 2104 Multilabel Reader (PerkinElmer, USA). Specifically, A549 lung cancer cells (ATCC, USA) were maintained in a humidified CO2 (5%) incubator at 37° C. in DMEM (Thermo Fisher, USA) supplemented with 10% fetal bovine serum in the presence of 1% Penicillin-Streptomycin-Glutamine (Thermo Fisher, USA) and 0.2% Normocin (InvivoGen, USA). The cells were plated in 96-well TC treated plates (PerkinElmer, USA) at a 5000 cells/well density 24 h prior to the experiment. Prodrug 5, compound 2 (2 mM in DMSO) and PEG-Tz (40 mM in DMSO) were serially diluted in pre-warmed culture medium. Prodrug 5 and compound 2 are in a series of final concentrations ranging from 0.001 to 10 μM with 200 μM, 100 μM, 50 μM, 25 μM PEG-Tz before the experiment and added to the wells (100 μL final volume per well). Doxorubicin was used as the positive control with same series of concentrations ranging from 0.001 to 10 μM. […] After 72 h incubation at 37° C., cell proliferation was assessed by a CellTiter-Glo® viability assay. Lyophilized CellTiter Glo Substrate (Promega, USA) was dissolved in the CellTiter Glo Buffer to get CellTiter-Glo® Reagent, and from which 100 μL was added to each well. After 15 min incubation at 25° C., the medium was gently measured with Envision 2104 Multilabel Reader (PerkinElmer, USA) to get the luminescent based on quantitation of the ATP present, an indicator of metabolically active cells. The proliferation assay was performed in triplicate (n=3). EC50 values were derived from the normalized cell growth and corresponding sigmoidal curves were fitted and generated with Origin 8.0.

[2] = Second-order reaction kinetics with tetrazine PEG-Tz (UV-Vis absorbance at 525 nm); type: physicochemical; settings: 37° C., λabs = 525 nm
Method: as §1

[3] = Stability in human serum (PBS:Serum 1:1), HPLC; type: in vitro ADME; settings: 50 μM in PBS:Serum (1:1), 37° C., 5 up to 48 h, 2 up to 7 days
Method: Stability studies of prodrug 5 in PBS:Serum were performed as follows. Stock solutions of prodrug 5 (2.5 mM) in DMSO were prepared. Aliquots of 5 stock solution (20 μL), 0.01 M PBS (480 μL) and human serum (500 μL) (Sigma-Aldrich, USA) were combined to give final concentrations of 50 μM for the 5 in PBS: Serum (1:1, v/v). The sample was thoroughly mixed and incubated at 37° C. in the dark and subsequently a 50 μL aliquot of the sample was taken at indicated time points (5 min, 6 h, 24 h and 48 h) and quenched by 200 μL ice cold acetonitrile, followed by centrifugation at 13300 rpm for 5 min. The supernatant was injected and analyzed by HPLC at 480 nm.
Stability studies of compound 2 were performed as follows. Stock solutions of 2 (2.5 mM) in DMSO were prepared. Aliquots of 2 stock solution (20 μL), 0.01 M PBS (480 μL) and human serum (500 μL) (Sigma-Aldrich, USA) were combined to give final concentrations of 50 μM for the 2 in PBS: Serum (1:1, v/v). The sample was thoroughly mixed and incubated at 37° C. in the dark and subsequently a 50 μL aliquot of the sample was taken at indicated time points (5 min, 6 h, 24 h, 48 h, 72 h and 7 days) and quenched by 200 μL ice cold acetonitrile, followed by centrifugation at 13300 rpm for 5 min. The supernatant was injected and analyzed by HPLC at 317 nm.

7-oxo-BNBD [compound 6, reference compound]
Second-order rate constant (k2) ([1]; DMSO): 0.176 M⁻¹ s⁻¹ and 0.176 ± 0.004 M⁻¹ s⁻¹

COc1cccc2c1C(=O)c1c(O)c3c(c(O)c1C2=O)C[C@@](O)(C(=O)CO)C[C@@H]3O[C@H]1C[C@H](N)[C@H](O)[C@H](C)O1 [Doxorubicin, reference compound]
EC50 (A549 lung cancer cells; Homo sapiens, A549): 88 nM | EC50 (A549 lung cancer cells; Homo sapiens, A549, 72 hour incubation at 37° C.): 88 ± 31 nM

COCCOCCOCCNC(=O)c1ccc(-c2nncnn2)cc1 [PEG-Tz, N-(2-(2-(2-methoxyethoxy)ethoxy)ethyl)-4-(1,2,4,5-tetrazin-3-yl) benzamide]
EC50 (A549 lung cancer cells; 72 hour incubation at 37° C.): > 200000 nM | Cytotoxicity in A549 cells (A549 lung cancer cells; tested concentration range (PEG-Tz 0.02 to 200 μM; 5 0.001 to 10 μM)): no obvious toxicity; also recorded: no cytotoxicity

O=C(Nc1ccc([N+](=O)[O-])cc1)OCC12C=CC(O1)c1ccccc12 (stereo not drawn) [compound 1]
Decrease of reaction rate with DPTz relative to 7-oxo-BNBD (6) ([1]; DMSO): ~12 fold | Second-order rate constant (k2) ([1]; 90% DMSO/H2O): 0.028 M⁻¹ s⁻¹ and 0.028 ± 0.0003 M⁻¹ s⁻¹ | Second-order rate constant (k2) ([1]; DMSO): 0.015 M⁻¹ s⁻¹ and 0.015 ± 0.008 M⁻¹ s⁻¹ | Second-order rate constant (k2) ([2]; 60% DMSO/PBS (3:2)): 0.190 M⁻¹ s⁻¹ and 0.190 ± 0.029 M⁻¹ s⁻¹ | Second-order rate constant (k2) ([2]; 90% DMSO/H2O): 0.058 ± 0.0003 M⁻¹ s⁻¹

CC(=O)N1C2C=CC1(COC(=O)Nc1ccc([N+](=O)[O-])cc1)c1ccccc12 (stereo not drawn) [compound 2]
Second-order rate constant (k2) ([1]; 90% DMSO/H2O): 0.017 M⁻¹ s⁻¹ and 0.017 ± 0.002 M⁻¹ s⁻¹ | Second-order rate constant (k2) ([1]; DMSO): 0.010 M⁻¹ s⁻¹ and 0.010 ± 0.0004 M⁻¹ s⁻¹ | Second-order rate constant (k2) ([2]; 60% DMSO/PBS (3:2)): 0.135 M⁻¹ s⁻¹ and 0.135 ± 0.010 M⁻¹ s⁻¹ | Second-order rate constant (k2) ([2]; 90% DMSO/H2O): 0.020 ± 0.0007 M⁻¹ s⁻¹ | Stability in human serum [3]: completely stable until the end of the analysis at one week | Unspecific payload release in human serum [3]: No free p-Nitroaniline or p-Nitroaniline-containing side products were observed; also recorded: no traces of pNA were formed; also recorded: No background liberation of reporter molecules was observed

CC(C)(C)OC(=O)N1C2C=CC1(COC(=O)Nc1ccc([N+](=O)[O-])cc1)c1ccccc12 (stereo not drawn) [compound 3, tert-butyl 1-((((4-nitrophenyl)carbamoyl)oxy)methyl)-1,4-dihydro-1,4-epiminonaphthalene-9-carboxylate]
Second-order rate constant (k2) ([1]; 90% DMSO/H2O): 0.0084 M⁻¹ s⁻¹ and 0.0084 ± 0.0016 M⁻¹ s⁻¹ | Second-order rate constant (k2) ([1]; DMSO): 0.0044 M⁻¹ s⁻¹ and 0.0044 ± 0.00009 M⁻¹ s⁻¹
